Results reported in patent US20260232767A1, “INTERLEUKIN-23 RECEPTOR ANTAGONIST PEPTIDES FOR USE IN THE TREATMENT OF PSORIASIS” (Janssen Pharmaceutica NV, priority 2023, published 2026).

System: subjects with moderate-to-severe plaque psoriasis
Assay: Hematology and chemistry laboratory values by CTCAE grade
Type: in vivo, human
Conditions: through Week 56
Excerpt: The proportion of participants who discontinued study intervention due to one or more AEs was low (n=4). All events were singular in nature with no apparent dose-dependent increase (Table 48 and Table 52). The number of participants with abnormal hematology and chemistry laboratory values with CTCAE toxicity grade≥3 were low through the end of the study (Table 43 through Table 46). There was no apparent dose-dependent increase in laboratory abnormality occurrences.

[1] = Placebo → 100 mg QD after crossover

What does the source list for `CC(=O)NCCCC[C@@H]1NC(=O)[C@H](Cc2c[nH]c3c(C)cccc23)NC(=O)[C@H]([C@@H](C)O)NC(=O)[C@H](CC(N)=O)NC(=O)[C@@H](NC(C)=O)C(C)(C)SSC(C)(C)[C@@H](C(=O)N[C@@H](Cc2ccc(OCCN)cc2)C(=O)N[C@@H](Cc2ccc3ccccc3c2)C(=O)NC2(C(=O)N[C@@H](CCC(=O)O)C(=O)N[C@@H](CC(N)=O)C(=O)N[C@@H](Cc3cccnc3)C(=O)N(C)CC(N)=O)CCOCC2)NC1=O` [IL-23 receptor antagonist peptide, Ac-[Pen]*-N-T-[W(7-Me)]-[Lys(Ac)]-[Pen]*-Phe[4-(2-aminoethoxy)]-[2-Nal]-[THP]-E-N-[3-Pal]-Sarc-NH2 (*[Pen]-[Pen]* formdisulfidebond)]?
WBC (×10^9/L) (increased): subjects with Grade 2 (100 mg QD): 0; WBC (×10^9/L) (increased): subjects with Grade 3 (100 mg QD): 0; WBC (×10^9/L) (increased): subjects with Grade 4 (100 mg QD): 0; WBC (×10^9/L) (increased): subjects with postbaseline maximum toxicity grade >0 (100 mg QD): 0; Hemoglobin (g/L) (decreased): subjects with Grade 3 (Combined Formula (I) regimens): 0; Hemoglobin (g/L) (decreased): subjects with Grade 4 (Combined Formula (I) regimens): 0; Hemoglobin (g/L) (increased): subjects with Grade 2 (Combined Formula (I) regimens): 0; Hemoglobin (g/L) (increased): subjects with Grade 3 (Combined Formula (I) regimens): 0; Hemoglobin (g/L) (increased): subjects with Grade 4 (Combined Formula (I) regimens): 0; Lymphocytes (×10^9/L) (decreased): subjects with Grade 3 (Combined Formula (I) regimens): 0; Lymphocytes (×10^9/L) (decreased): subjects with Grade 4 (Combined Formula (I) regimens): 0; Lymphocytes (×10^9/L) (increased): subjects with Grade 1 (Combined Formula (I) regimens): 0; Lymphocytes (×10^9/L) (increased): subjects with Grade 3 (Combined Formula (I) regimens): 0; Lymphocytes (×10^9/L) (increased): subjects with Grade 4 (Combined Formula (I) regimens): 0; Neutrophils (×10^9/L) (decreased): subjects with Grade 3 (Combined Formula (I) regimens): 0; Neutrophils (×10^9/L) (decreased): subjects with Grade 4 (Combined Formula (I) regimens): 0; Platelets (×10^9/L) (decreased): subjects with Grade 2 (Combined Formula (I) regimens): 0; Platelets (×10^9/L) (decreased): subjects with Grade 3 (Combined Formula (I) regimens): 0; Platelets (×10^9/L) (decreased): subjects with Grade 4 (Combined Formula (I) regimens): 0; WBC (×10^9/L) (decreased): subjects with Grade 3 (Combined Formula (I) regimens): 0; WBC (×10^9/L) (decreased): subjects with Grade 4 (Combined Formula (I) regimens): 0; WBC (×10^9/L) (increased): subjects with Grade 1 (Combined Formula (I) regimens): 0; WBC (×10^9/L) (increased): subjects with Grade 2 (Combined Formula (I) regimens): 0; WBC (×10^9/L) (increased): subjects with Grade 3 (Combined Formula (I) regimens): 0; WBC (×10^9/L) (increased): subjects with Grade 4 (Combined Formula (I) regimens): 0; WBC (×10^9/L) (increased): subjects with postbaseline maximum toxicity grade >0 (Combined Formula (I) regimens): 0; Alanine Aminotransferase (increased): Subjects with Grade 4 (Combined): 0; Albumin (decreased): Subjects with Grade 1 (Combined): 0; Albumin (decreased): Subjects with Grade 2 (Combined): 0; Albumin (decreased): Subjects with Grade 3 (Combined): 0; Albumin (decreased): Subjects with Grade 4 (Combined): 0; Albumin (decreased): Subjects with postbaseline maximum toxicity grade >0 (Combined): 0; Alkaline Phosphatase (increased): Subjects with Grade 2 (Combined): 0; Alkaline Phosphatase (increased): Subjects with Grade 3 (Combined): 0; Alkaline Phosphatase (increased): Subjects with Grade 4 (Combined): 0; Aspartate Aminotransferase (increased): Subjects with Grade 4 (Combined): 0; Calcium corrected (decreased): Subjects with Grade 3 (Combined): 0; Calcium corrected (decreased): Subjects with Grade 4 (Combined): 0; Calcium corrected (increased): Subjects with Grade 2 (Combined): 0; Calcium corrected (increased): Subjects with Grade 3 (Combined): 0; Calcium corrected (increased): Subjects with Grade 4 (Combined): 0; Cholesterol (increased): Subjects with Grade 3 (Combined): 0; Cholesterol (increased): Subjects with Grade 4 (Combined): 0; Creatinine (increased): Subjects with Grade 3 (Combined): 0; Creatinine (increased): Subjects with Grade 4 (Combined): 0; Gamma Glutamyl Transferase (increased): Subjects with Grade 3 (Combined): 0; Gamma Glutamyl Transferase (increased): Subjects with Grade 4 (Combined): 0; Glucose (decreased): Subjects with Grade 3 (Combined): 0; Glucose (decreased): Subjects with Grade 4 (Combined): 0; Magnesium (decreased): Subjects with Grade 2 (Combined): 0; Magnesium (decreased): Subjects with Grade 3 (Combined): 0; Magnesium (decreased): Subjects with Grade 4 (Combined): 0; Magnesium (increased): Subjects with Grade 2 (Combined): 0; Magnesium (increased): Subjects with Grade 3 (Combined): 0; Magnesium (increased): Subjects with Grade 4 (Combined): 0; Potassium (decreased): Subjects with Grade 1 (Combined): 0; Potassium (decreased): Subjects with Grade 3 (Combined): 0; Potassium (decreased): Subjects with Grade 4 (Combined): 0; Potassium (increased): Subjects with Grade 4 (Combined): 0; Sodium (decreased): Subjects with Grade 2 (Combined): 0; Sodium (decreased): Subjects with Grade 3 (Combined): 0; Sodium (decreased): Subjects with Grade 4 (Combined): 0; Sodium (increased): Subjects with Grade 2 (Combined): 0; Sodium (increased): Subjects with Grade 3 (Combined): 0; Sodium (increased): Subjects with Grade 4 (Combined): 0; Total Bilirubin (increased): Subjects with Grade 3 (Combined): 0; Total Bilirubin (increased): Subjects with Grade 4 (Combined): 0; Hemoglobin (g/L) (decreased): subjects with Grade 2 [1]: 0; Hemoglobin (g/L) (decreased): subjects with Grade 3 [1]: 0; Hemoglobin (g/L) (decreased): subjects with Grade 4 [1]: 0; Hemoglobin (g/L) (increased): subjects with Grade 2 [1]: 0; Hemoglobin (g/L) (increased): subjects with Grade 3 [1]: 0; Hemoglobin (g/L) (increased): subjects with Grade 4 [1]: 0; Lymphocytes (×10^9/L) (decreased): subjects with Grade 1 [1]: 0; Lymphocytes (×10^9/L) (decreased): subjects with Grade 3 [1]: 0; Lymphocytes (×10^9/L) (decreased): subjects with Grade 4 [1]: 0; Lymphocytes (×10^9/L) (increased): subjects with Grade 1 [1]: 0; Lymphocytes (×10^9/L) (increased): subjects with Grade 2 [1]: 0; Lymphocytes (×10^9/L) (increased): subjects with Grade 3 [1]: 0; Lymphocytes (×10^9/L) (increased): subjects with Grade 4 [1]: 0; Lymphocytes (×10^9/L) (increased): subjects with postbaseline maximum toxicity grade >0 [1]: 0; Platelets (×10^9/L) (decreased): subjects with Grade 2 [1]: 0; Platelets (×10^9/L) (decreased): subjects with Grade 3 [1]: 0; Platelets (×10^9/L) (decreased): subjects with Grade 4 [1]: 0; WBC (×10^9/L) (decreased): subjects with Grade 2 [1]: 0; WBC (×10^9/L) (decreased): subjects with Grade 3 [1]: 0; WBC (×10^9/L) (decreased): subjects with Grade 4 [1]: 0; WBC (×10^9/L) (increased): subjects with Grade 1 [1]: 0; WBC (×10^9/L) (increased): subjects with Grade 2 [1]: 0; WBC (×10^9/L) (increased): subjects with Grade 3 [1]: 0; WBC (×10^9/L) (increased): subjects with Grade 4 [1]: 0; WBC (×10^9/L) (increased): subjects with postbaseline maximum toxicity grade >0 [1]: 0; Alanine Aminotransferase (increased): Subjects with Grade 1 (Placebo → 100 mg QD): 10; Alanine Aminotransferase (increased): Subjects with Grade 3 (Placebo → 100 mg QD): 0; Alanine Aminotransferase (increased): Subjects with Grade 4 (Placebo → 100 mg QD): 0; Albumin (decreased): Subjects with Grade 1 (Placebo → 100 mg QD): 0; Albumin (decreased): Subjects with Grade 2 (Placebo → 100 mg QD): 0; Albumin (decreased): Subjects with Grade 3 (Placebo → 100 mg QD): 0; Albumin (decreased): Subjects with Grade 4 (Placebo → 100 mg QD): 0; Albumin (decreased): Subjects with postbaseline maximum toxicity grade >0 (Placebo → 100 mg QD): 0; Alkaline Phosphatase (increased): Subjects with Grade 2 (Placebo → 100 mg QD): 0; Alkaline Phosphatase (increased): Subjects with Grade 3 (Placebo → 100 mg QD): 0; Alkaline Phosphatase (increased): Subjects with Grade 4 (Placebo → 100 mg QD): 0; Aspartate Aminotransferase (increased): Subjects with Grade 4 (Placebo → 100 mg QD): 0; Aspartate Aminotransferase (increased): Subjects with postbaseline maximum toxicity grade >0 (Placebo → 100 mg QD): 9; Calcium corrected (decreased): Subjects with Grade 3 (Placebo → 100 mg QD): 0; Calcium corrected (decreased): Subjects with Grade 4 (Placebo → 100 mg QD): 0; Calcium corrected (increased): Subjects with Grade 1 (Placebo → 100 mg QD): 0; Calcium corrected (increased): Subjects with Grade 2 (Placebo → 100 mg QD): 0; Calcium corrected (increased): Subjects with Grade 3 (Placebo → 100 mg QD): 0; Calcium corrected (increased): Subjects with Grade 4 (Placebo → 100 mg QD): 0; Calcium corrected (increased): Subjects with postbaseline maximum toxicity grade >0 (Placebo → 100 mg QD): 0; Cholesterol (increased): Subjects with Grade 1 (Placebo → 100 mg QD): 0; Cholesterol (increased): Subjects with Grade 2 (Placebo → 100 mg QD): 0; Cholesterol (increased): Subjects with Grade 3 (Placebo → 100 mg QD): 0; Cholesterol (increased): Subjects with Grade 4 (Placebo → 100 mg QD): 0; Cholesterol (increased): Subjects with postbaseline maximum toxicity grade >0 (Placebo → 100 mg QD): 0; Creatine Kinase (increased): Subjects with Grade 2 (Placebo → 100 mg QD): 0; Creatine Kinase (increased): Subjects with Grade 4 (Placebo → 100 mg QD): 0; Creatinine (increased): Subjects with Grade 2 (Placebo → 100 mg QD): 0; Creatinine (increased): Subjects with Grade 3 (Placebo → 100 mg QD): 0; Creatinine (increased): Subjects with Grade 4 (Placebo → 100 mg QD): 0; Gamma Glutamyl Transferase (increased): Subjects with Grade 3 (Placebo → 100 mg QD): 0; Gamma Glutamyl Transferase (increased): Subjects with Grade 4 (Placebo → 100 mg QD): 0; Glucose (decreased): Subjects with Grade 3 (Placebo → 100 mg QD): 0; Glucose (decreased): Subjects with Grade 4 (Placebo → 100 mg QD): 0; Magnesium (decreased): Subjects with Grade 2 (Placebo → 100 mg QD): 0; Magnesium (decreased): Subjects with Grade 3 (Placebo → 100 mg QD): 0; Magnesium (decreased): Subjects with Grade 4 (Placebo → 100 mg QD): 0; Magnesium (increased): Subjects with Grade 2 (Placebo → 100 mg QD): 0; Magnesium (increased): Subjects with Grade 3 (Placebo → 100 mg QD): 0; Magnesium (increased): Subjects with Grade 4 (Placebo → 100 mg QD): 0; Potassium (decreased): Subjects with Grade 1 (Placebo → 100 mg QD): 0; Potassium (decreased): Subjects with Grade 3 (Placebo → 100 mg QD): 0; Potassium (decreased): Subjects with Grade 4 (Placebo → 100 mg QD): 0; Potassium (increased): Subjects with Grade 3 (Placebo → 100 mg QD): 0; Potassium (increased): Subjects with Grade 4 (Placebo → 100 mg QD): 0; Sodium (decreased): Subjects with Grade 1 (Placebo → 100 mg QD): 0; Sodium (decreased): Subjects with Grade 2 (Placebo → 100 mg QD): 0; Sodium (decreased): Subjects with Grade 3 (Placebo → 100 mg QD): 0; Sodium (decreased): Subjects with Grade 4 (Placebo → 100 mg QD): 0; Sodium (decreased): Subjects with postbaseline maximum toxicity grade >0 (Placebo → 100 mg QD): 0; Sodium (increased): Subjects with Grade 1 (Placebo → 100 mg QD): 0; Sodium (increased): Subjects with Grade 2 (Placebo → 100 mg QD): 0; Sodium (increased): Subjects with Grade 3 (Placebo → 100 mg QD): 0; Sodium (increased): Subjects with Grade 4 (Placebo → 100 mg QD): 0; Sodium (increased): Subjects with postbaseline maximum toxicity grade >0 (Placebo → 100 mg QD): 0; Total Bilirubin (increased): Subjects with Grade 2 (Placebo → 100 mg QD): 0; Total Bilirubin (increased): Subjects with Grade 3 (Placebo → 100 mg QD): 0; Total Bilirubin (increased): Subjects with Grade 4 (Placebo → 100 mg QD): 0; Triglycerides (increased): Subjects with Grade 3 (Placebo → 100 mg QD): 0; Triglycerides (increased): Subjects with Grade 4 (Placebo → 100 mg QD): 0
